In PubChem BioAssay AID1159563 (GlaxoSmithKline (GSK), 2015):
The source made the active and inactive calls. How the calls were made is not given here.

What follows are molecules tested on HepG2 cytotoxicity (assay: HepG2 cell cytotoxicity, cytotoxicity control (AID 1159563)).
For `COc1ccc(CN2CCCCC2c2nc(-c3cccnc3)no2)cc1` (stereo not given), the IC50 was > 100 µM (inactive).
In the case of `Cc1ccc2c(c1)SC(C(=O)Nc1n[nH]c(-c3ccccn3)n1)C2` (stereo not given), the IC50 is reported as 25 µM.
In the case of `O=C(NCCc1ccccc1Cl)c1cccn1-c1cccnc1`, the IC50 is reported as > 100 µM (inactive).
In the case of `CC(=O)Nc1nc(-c2cc(C)ccc2C)c(C)s1`, the IC50 is reported as > 100 µM (inactive).
For `c1ccc(Nc2nc(-c3ccccn3)cc(N3CCOCC3)n2)cc1`, the IC50 was > 100 µM (inactive).
`CN(Cc1ccc(C(N)=O)cc1)C(c1ccc(F)cc1)c1cccnc1` (stereo not given) was tested, and the IC50 was > 100 µM (inactive).
In the case of `N#Cc1ccc(C(=O)Nc2cccc(-c3cccc(CN4CCC(O)CC4)c3)c2)cc1`, the IC50 is reported as 40 µM.
For `CCCCNc1nccc(-c2c(-c3ccc(F)cc3)nn3c(N4CCOCC4)cccc23)n1`, the IC50 was > 100 µM (inactive).
Work on `Cc1sc(C)c(C(F)(F)F)c1CNCCCNc1cc(=O)c2ccccc2[nH]1` yielded an IC50 of 50 µM.
For `COc1cc(C(C)C)c(S(C)(=O)=O)cc1C(=O)N1CCN(c2ccccc2Cl)CC1`, the IC50 was > 100 µM (inactive).
Molecule `Cc1cnc(Nc2cc(Cc3ccccc3)nc(NC3CCC(O)CC3)n2)s1` (stereo not given) has an IC50 of 25 µM.
With `CC1CCCN(S(=O)(=O)c2ccc(C(=O)Nc3nc(-c4ccccn4)cs3)cc2)C1` (stereo not given) the IC50 was 40 µM.
With `O=C1OCc2ccc(Nc3nccc(-c4cnn5ncccc45)n3)cc21` the IC50 was > 100 µM (inactive).
In the case of `CCOc1ccc(OCC(=O)N2c3ccccc3CC2C(=O)NC)cc1` (stereo not given), the IC50 is reported as > 100 µM (inactive).
Work on `CC(C)Oc1ccc(C(=O)Nc2ccc(N3CCOCC3)c(Cl)c2)cc1` yielded an IC50 of 32 µM.
For `Cc1cc(NC(=O)c2ccc([N+](=O)[O-])s2)ccc1Br`, the IC50 was 40 µM.
`CS(=O)(=O)N1CCC(Nc2ncc(Br)c(Nc3cccc(F)c3C(N)=O)n2)CC1` was tested, and the IC50 was > 100 µM (inactive).
For `CS(=O)(=O)c1ccc(Nc2nccc(Nc3n[nH]c4ccc(F)cc34)n2)c(F)c1`, the IC50 was 79 µM.
`Cc1cc(N(C)C)nc2ccc(Cc3cnc(N)nc3N)cc12` showed an IC50 of 32 µM.
In the case of `CC(C)Nc1nccc(-c2c(-c3ccc(F)cc3)ncn2C2CCOCC2)n1`, the IC50 is reported as > 100 µM (inactive).
In the case of `OCC1CCCCN1c1cc(-c2ccccn2)nc(Nc2ccccc2)n1` (stereo not given), the IC50 is reported as 32 µM.
`O=C1CN(C(=O)c2cccc(Nc3ncc(-c4ccc5c(c4)OCO5)cn3)c2)CCN1` was tested, and the IC50 was > 130 µM (inactive).
With `CCC(c1ccc(F)cc1)n1cncc1-c1cnn(C)c1` (stereo not given) the IC50 was > 100 µM (inactive).
`Nc1nc(-c2ccccc2)cc(-c2nc3ncccc3[nH]2)n1` gave an IC50 of 40 µM.
With `O=c1cc(NCCCNCc2c[nH]c3ccc(Br)cc23)[nH]c2ccccc12` the IC50 was > 100 µM (inactive).
With `Cc1cc(Nc2ccc(C#N)c(Cl)c2C)n[nH]1` the IC50 was > 100 µM (inactive).
`COc1ccccc1CNc1cc(C2CC2)nc(-c2nccn2C)n1` gave an IC50 of 20 µM.
For `O=C(CSc1nnc(-c2ccc3c(c2)OCO3)o1)N(Cc1ccco1)CC(F)(F)F`, the IC50 was > 100 µM (inactive).
`N#Cc1cccc(Cc2cc(Nc3cc(C4CC4)[nH]n3)nc(N3CC[C@H]3C(N)=O)n2)c1` was tested, and the IC50 was > 100 µM (inactive).
In the case of `O=C(Nc1ccccc1C(=O)Nc1ccccn1)c1ccco1`, the IC50 is reported as > 100 µM (inactive).
`Cc1ncsc1CNc1cnc(-c2ccc3c(c2)OCCO3)c(-c2cnn(C)c2)c1` was tested, and the IC50 was > 100 µM (inactive).
In the case of `O=C(Nc1ccc(Br)c(Cl)c1)Nc1ccc2c(c1)OCO2`, the IC50 is reported as > 100 µM (inactive).
`CN(Cc1nnnn1C1CCN(Cc2ccc(-n3ccnc3)cc2)CC1)c1ccc(F)cc1F` was tested, and the IC50 was > 100 µM (inactive).
In the case of `CNC(=O)C1Cc2ccccc2N1C(=O)Cc1ccccc1` (stereo not given), the IC50 is reported as > 100 µM (inactive).
`Cc1nc(C(=O)Nc2ccc3c(c2)OCO3)nn1-c1ccc(F)cc1` was tested, and the IC50 was > 100 µM (inactive).
